The term IC50 denotes the midpoint of a concentration-inhibition curve. Higher therefore signals lower potency. Broadly, the Ki is the equilibrium dissociation constant of an inhibitor or competing ligand from its target. Read a low Ki as a stronger hold on the target.

The structures appear in SMILES notation.

From ChEMBL document CHEMBL1137221, “Validation of model of cytochrome P450 2D6: an in silico tool for predicting metabolism and inhibition” (J Med Chem, 2004) come the findings set out here.

T1 sequence (P10635 whole entry): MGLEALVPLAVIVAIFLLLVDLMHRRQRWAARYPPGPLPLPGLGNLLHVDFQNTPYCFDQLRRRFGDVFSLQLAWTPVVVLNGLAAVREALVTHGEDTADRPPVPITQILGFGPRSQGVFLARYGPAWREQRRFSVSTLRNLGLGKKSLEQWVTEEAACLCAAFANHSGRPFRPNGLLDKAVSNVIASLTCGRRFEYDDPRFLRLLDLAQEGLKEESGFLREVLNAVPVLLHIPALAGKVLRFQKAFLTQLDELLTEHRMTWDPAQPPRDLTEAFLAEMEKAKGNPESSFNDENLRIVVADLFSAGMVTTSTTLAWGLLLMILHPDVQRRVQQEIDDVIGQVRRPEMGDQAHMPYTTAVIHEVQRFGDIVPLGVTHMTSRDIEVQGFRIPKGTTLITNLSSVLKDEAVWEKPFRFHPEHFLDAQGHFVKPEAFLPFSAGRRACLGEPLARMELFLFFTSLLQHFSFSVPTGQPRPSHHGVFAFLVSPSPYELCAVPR

The first experiment has as its target T1, Cytochrome P450 2D6 (Homo sapiens, UniProt P10635). Description: Inhibitory concentration against cytochrome P450 2D6.
With `NS(=O)(=O)OCCCCCCCOS(N)(=O)=O`, the midpoint of inhibition, the IC50, lay at 699 µM.

For `O=C1CC2(CCCCC2)C(=O)C1CC(Cl)CCl` (configuration not stated), the IC50 is 310 µM.

Consider `O=C(O)c1ccc(CNCc2ccccc2)cc1`, for which the IC50 came out at 570 µM. `NCCCc1c(-c2ccccc2)nc(N)[nH]c1=O` had an IC50 of 234 µM. Same read-out and setting: the result for `O=C(Cn1ccnc1[N+](=O)[O-])N(CCO)CCO` reads 1020 µM. `COC12[C@H](COC(N)=O)C3=C(C(O)=C(C)C(=N)C3=O)N1C[C@H]1[C@@H]2N1C` (some centres not stated) registered an IC50 of 94.3 µM. Still for that read-out and setting: the result for `COc1ccc(S(=O)(=O)N/N=C/C(=O)O)cc1` reads 288 µM; that for `Clc1ccc(Cl)c(SCCCN2CCNCC2)c1`, 2.1 µM. Still for that read-out and setting: the result for `CN(C)CCOc1ccc(/C(=C/c2ccccc2)c2ccccc2)cc1` reads 7.2 µM; that for `CC(C)NC(=O)OCc1c(COC(=O)NC(C)C)c(-c2ccc(Cl)c(Cl)c2)n2c1CCC2`, 11 µM. Same read-out and setting: the result for `O=CC(NC(=O)N(CCCl)N=O)C(O)C(O)C(O)CO` (configuration not stated) reads 2020 µM. `NCC(O)CSCc1ccc(Cl)cc1` (configuration not stated): the IC50 came out at 8 µM. Still for that read-out and setting: the result for `COc1ccc2c(c1[N+](=O)[O-])CC[C@@H]1[C@@H]2CC[C@]2(C)C(=O)CC[C@@H]12` reads 196 µM; that for `COC(=O)C12OC[C@]34[C@H]([C@@H](O)[C@@H]1O)[C@@]1(C)CC(=O)C(O)=C(C)[C@@H]1C[C@H]3OC(=O)[C@H](OC(=O)/C=C(\C)C(C)C)[C@@H]24` (single isomer, unassigned) [BRUCEANTIN], 514 µM; that for `CC(=O)N(C)c1ccc(Nc2cc(C)nc3ccc4[nH]cnc4c23)cc1` [ACODAZOLE], 18.1 µM. On the same count and under the same terms, in the case of `CN(C)CCN1C(=O)c2cccc3cc(N)cc(c23)C1=O` [AMONAFIDE] it was 39.6 µM; in that of `O=C(O)CCCc1ccc(N(CCCl)CCCl)cc1` [CHLORAMBUCIL], 65.1 µM; in that of `C=C[C@H]1C[N@@]2CC[C@H]1C[C@@H]2[C@@H](O)c1ccnc2ccccc12` [CINCHONINE], 1.8 µM. `Nc1ccc2c(c1)CN1C(=O)c3ccccc3C1=N2` [DANIQUIDONE] yielded an IC50 of 48 µM.

Turning to `CCN(CC)CCNc1ccc(CO)c2sc3ccccc3c(=O)c12` [HYCANTHONE], the IC50 came to 1.5 µM. Compound `CNCCC=C1c2ccccc2CCc2ccccc21` [NORTRIPTYLINE] registered an IC50 of 2.6 µM.

A further experiment deals with T1, Cytochrome P450 2D6. Description: Binding affinity for cytochrome P450 2D6. The experiment is classed as ADME.
`C=C[C@H]1C[N@@]2CC[C@H]1C[C@@H]2[C@@H](O)c1ccnc2ccccc12` [CINCHONINE] gave a Ki of 21 µM.
